Measured values reported in ChEMBL document CHEMBL1201862, “PubChem BioAssay data set” (2004).
Blank lines part the entries; values can stand above or below the molecule they belong to. The source made the active and inactive calls.

Assays:
[1] = target: Intestinal-type alkaline phosphatase (Mus musculus, UniProt P24822); assay: mouse intestinal alkaline phosphatase activators, dose response, biochemical, luminescence, uHTS hits (AID 488783); assay type: functional
[2] = target: T1, 1-phosphatidylinositol 4,5-bisphosphate phosphodiesterase beta-3 (Homo sapiens, UniProt Q01970); assay: Fluorescence-based biochemical high throughput dose response assay to identify inhibitors of phospholipase C isozymes (PLC-B3).
T1 sequence (Q01970 whole entry): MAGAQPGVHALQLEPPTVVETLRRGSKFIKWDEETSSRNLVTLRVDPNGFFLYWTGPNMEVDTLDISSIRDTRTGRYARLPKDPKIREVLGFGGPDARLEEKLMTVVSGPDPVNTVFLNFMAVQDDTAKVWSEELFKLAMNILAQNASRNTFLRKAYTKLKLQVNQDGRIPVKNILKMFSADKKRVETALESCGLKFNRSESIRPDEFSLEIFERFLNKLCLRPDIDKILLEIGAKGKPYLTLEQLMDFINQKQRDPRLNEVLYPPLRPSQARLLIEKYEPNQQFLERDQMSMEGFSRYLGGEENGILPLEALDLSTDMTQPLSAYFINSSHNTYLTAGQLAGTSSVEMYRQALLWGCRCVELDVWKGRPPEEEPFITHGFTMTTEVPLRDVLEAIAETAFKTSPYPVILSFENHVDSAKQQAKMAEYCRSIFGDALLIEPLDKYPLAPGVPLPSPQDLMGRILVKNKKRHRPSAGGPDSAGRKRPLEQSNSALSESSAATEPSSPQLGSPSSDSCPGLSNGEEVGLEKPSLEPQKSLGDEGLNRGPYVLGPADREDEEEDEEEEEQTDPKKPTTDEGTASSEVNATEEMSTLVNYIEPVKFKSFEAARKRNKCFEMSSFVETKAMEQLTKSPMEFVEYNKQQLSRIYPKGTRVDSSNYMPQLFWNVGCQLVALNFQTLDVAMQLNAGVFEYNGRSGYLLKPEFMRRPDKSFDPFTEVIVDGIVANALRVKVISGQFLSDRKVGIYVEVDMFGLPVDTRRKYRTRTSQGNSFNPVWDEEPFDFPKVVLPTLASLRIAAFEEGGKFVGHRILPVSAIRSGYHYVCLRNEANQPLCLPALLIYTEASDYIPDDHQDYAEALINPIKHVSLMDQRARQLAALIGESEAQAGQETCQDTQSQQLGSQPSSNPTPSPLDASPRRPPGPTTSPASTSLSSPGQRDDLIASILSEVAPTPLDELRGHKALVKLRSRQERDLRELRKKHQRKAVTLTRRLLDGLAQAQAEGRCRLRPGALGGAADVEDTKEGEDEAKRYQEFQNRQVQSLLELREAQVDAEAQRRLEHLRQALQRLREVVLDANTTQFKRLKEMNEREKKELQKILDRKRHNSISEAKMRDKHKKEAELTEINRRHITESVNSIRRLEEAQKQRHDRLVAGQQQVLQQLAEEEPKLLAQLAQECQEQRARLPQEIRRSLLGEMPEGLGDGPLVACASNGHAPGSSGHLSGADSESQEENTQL

[3] = target: Protein kinase C theta type (Homo sapiens, UniProt Q04759); assay: Navigating the Kinome. Panel member name: PRKCQ; assay type: functional
[4] = target: Proto-oncogene tyrosine-protein kinase receptor Ret (Homo sapiens, UniProt P07949); assay type: functional;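 further: measured within a kinome-wide profiling panel, RET as the panel member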
[5] = target: Tyrosine-protein kinase Lck (Homo sapiens, UniProt P06239); assay type: functional;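 further: lck was assayed as one member of a kinase panel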
Tyrosine-protein kinase Lck, sequence (P06239 whole entry): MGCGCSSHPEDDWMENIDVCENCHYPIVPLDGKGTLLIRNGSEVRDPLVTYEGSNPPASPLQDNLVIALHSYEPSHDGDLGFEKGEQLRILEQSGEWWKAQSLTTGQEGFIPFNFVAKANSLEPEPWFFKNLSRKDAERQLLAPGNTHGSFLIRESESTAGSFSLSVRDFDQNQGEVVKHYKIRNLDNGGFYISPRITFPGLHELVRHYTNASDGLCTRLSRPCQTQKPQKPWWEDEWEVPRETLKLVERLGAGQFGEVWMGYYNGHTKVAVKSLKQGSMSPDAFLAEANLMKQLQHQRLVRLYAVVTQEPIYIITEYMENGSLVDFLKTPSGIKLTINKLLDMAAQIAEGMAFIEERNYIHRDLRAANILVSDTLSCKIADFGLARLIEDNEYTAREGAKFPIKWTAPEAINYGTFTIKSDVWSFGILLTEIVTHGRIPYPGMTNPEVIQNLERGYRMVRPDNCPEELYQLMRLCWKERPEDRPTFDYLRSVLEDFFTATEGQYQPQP

[6] = target: Tyrosine-protein kinase BTK (Homo sapiens, UniProt Q06187); assay type: functional
[7] = target: Mitogen-activated protein kinase kinase kinase kinase 2 (Homo sapiens, UniProt Q12851); assay type: functional;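 further: measured as one member of a kinome-wide kinase panel, with MAP4K2 as the panel entry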
[8] = target: Dual specificity tyrosine-phosphorylation-regulated kinase 1B (Homo sapiens, UniProt Q9Y463); assay: Navigating the Kinome. Panel member name: DYRK1B; assay type: functional
Focal adhesion kinase 1 = Focal adhesion kinase 1 (Homo sapiens, UniProt Q05397); assay type: functional;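 further: measured as one member of a kinome panel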
Focal adhesion kinase 1, sequence (Q05397 whole entry): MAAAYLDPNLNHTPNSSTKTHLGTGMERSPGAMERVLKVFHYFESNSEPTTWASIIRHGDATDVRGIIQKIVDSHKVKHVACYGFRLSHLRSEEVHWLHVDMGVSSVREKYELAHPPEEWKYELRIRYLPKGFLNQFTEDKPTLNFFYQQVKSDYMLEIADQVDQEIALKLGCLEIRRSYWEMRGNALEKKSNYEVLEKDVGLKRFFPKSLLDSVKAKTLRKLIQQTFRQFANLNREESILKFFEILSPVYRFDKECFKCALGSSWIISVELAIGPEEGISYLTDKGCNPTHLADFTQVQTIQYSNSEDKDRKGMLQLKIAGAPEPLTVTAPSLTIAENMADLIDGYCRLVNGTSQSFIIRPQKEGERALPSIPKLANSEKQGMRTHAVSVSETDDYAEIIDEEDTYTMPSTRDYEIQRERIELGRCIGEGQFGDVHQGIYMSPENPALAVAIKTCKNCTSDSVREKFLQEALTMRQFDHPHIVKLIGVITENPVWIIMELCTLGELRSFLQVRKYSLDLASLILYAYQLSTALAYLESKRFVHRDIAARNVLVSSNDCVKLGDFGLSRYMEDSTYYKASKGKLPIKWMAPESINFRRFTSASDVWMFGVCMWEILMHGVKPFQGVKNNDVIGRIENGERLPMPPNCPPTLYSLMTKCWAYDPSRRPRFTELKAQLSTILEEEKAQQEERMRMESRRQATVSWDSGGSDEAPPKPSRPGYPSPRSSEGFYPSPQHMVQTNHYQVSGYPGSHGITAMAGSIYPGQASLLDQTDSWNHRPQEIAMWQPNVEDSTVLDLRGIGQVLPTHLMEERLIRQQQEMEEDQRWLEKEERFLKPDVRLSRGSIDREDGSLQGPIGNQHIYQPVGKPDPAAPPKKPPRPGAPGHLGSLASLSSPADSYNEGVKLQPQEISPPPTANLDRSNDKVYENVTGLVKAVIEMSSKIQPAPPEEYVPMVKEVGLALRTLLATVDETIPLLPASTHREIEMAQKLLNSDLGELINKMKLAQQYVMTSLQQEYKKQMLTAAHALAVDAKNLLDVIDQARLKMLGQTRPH

[9] = target: Cyclin-dependent kinase 7 (Homo sapiens, UniProt P50613); assay type: functional;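 further: value comes from a kinome-wide kinase profiling panel in which CDK7 is one member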
Cyclin-dependent kinase 7, sequence (P50613 whole entry): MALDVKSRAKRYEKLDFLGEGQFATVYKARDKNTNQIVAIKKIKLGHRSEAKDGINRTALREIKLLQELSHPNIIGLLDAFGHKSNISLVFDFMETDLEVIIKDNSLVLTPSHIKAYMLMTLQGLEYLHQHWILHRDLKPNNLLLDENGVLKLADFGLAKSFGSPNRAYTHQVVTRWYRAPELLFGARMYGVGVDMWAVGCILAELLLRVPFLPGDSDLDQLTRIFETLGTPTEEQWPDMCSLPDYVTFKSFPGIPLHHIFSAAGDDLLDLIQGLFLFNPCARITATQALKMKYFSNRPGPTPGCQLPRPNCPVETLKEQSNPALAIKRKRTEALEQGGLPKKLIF

[10] = target: Inhibitor of nuclear factor kappa-B kinase subunit epsilon (Homo sapiens, UniProt Q14164); assay: Navigating the Kinome. Panel member name: IKBKE; assay type: functional
[11] = target: Voltage-gated N-type calcium channel alpha-1B subunit/Amyloid beta A4 precursor protein-binding family A member 1 (Homo sapiens, UniProt Q00975+Q02410); assay type: protein assay
Voltage-gated N-type calcium channel alpha-1B subunit/Amyloid beta A4 precursor protein-binding family A member 1, sequence (Q00975 whole entry): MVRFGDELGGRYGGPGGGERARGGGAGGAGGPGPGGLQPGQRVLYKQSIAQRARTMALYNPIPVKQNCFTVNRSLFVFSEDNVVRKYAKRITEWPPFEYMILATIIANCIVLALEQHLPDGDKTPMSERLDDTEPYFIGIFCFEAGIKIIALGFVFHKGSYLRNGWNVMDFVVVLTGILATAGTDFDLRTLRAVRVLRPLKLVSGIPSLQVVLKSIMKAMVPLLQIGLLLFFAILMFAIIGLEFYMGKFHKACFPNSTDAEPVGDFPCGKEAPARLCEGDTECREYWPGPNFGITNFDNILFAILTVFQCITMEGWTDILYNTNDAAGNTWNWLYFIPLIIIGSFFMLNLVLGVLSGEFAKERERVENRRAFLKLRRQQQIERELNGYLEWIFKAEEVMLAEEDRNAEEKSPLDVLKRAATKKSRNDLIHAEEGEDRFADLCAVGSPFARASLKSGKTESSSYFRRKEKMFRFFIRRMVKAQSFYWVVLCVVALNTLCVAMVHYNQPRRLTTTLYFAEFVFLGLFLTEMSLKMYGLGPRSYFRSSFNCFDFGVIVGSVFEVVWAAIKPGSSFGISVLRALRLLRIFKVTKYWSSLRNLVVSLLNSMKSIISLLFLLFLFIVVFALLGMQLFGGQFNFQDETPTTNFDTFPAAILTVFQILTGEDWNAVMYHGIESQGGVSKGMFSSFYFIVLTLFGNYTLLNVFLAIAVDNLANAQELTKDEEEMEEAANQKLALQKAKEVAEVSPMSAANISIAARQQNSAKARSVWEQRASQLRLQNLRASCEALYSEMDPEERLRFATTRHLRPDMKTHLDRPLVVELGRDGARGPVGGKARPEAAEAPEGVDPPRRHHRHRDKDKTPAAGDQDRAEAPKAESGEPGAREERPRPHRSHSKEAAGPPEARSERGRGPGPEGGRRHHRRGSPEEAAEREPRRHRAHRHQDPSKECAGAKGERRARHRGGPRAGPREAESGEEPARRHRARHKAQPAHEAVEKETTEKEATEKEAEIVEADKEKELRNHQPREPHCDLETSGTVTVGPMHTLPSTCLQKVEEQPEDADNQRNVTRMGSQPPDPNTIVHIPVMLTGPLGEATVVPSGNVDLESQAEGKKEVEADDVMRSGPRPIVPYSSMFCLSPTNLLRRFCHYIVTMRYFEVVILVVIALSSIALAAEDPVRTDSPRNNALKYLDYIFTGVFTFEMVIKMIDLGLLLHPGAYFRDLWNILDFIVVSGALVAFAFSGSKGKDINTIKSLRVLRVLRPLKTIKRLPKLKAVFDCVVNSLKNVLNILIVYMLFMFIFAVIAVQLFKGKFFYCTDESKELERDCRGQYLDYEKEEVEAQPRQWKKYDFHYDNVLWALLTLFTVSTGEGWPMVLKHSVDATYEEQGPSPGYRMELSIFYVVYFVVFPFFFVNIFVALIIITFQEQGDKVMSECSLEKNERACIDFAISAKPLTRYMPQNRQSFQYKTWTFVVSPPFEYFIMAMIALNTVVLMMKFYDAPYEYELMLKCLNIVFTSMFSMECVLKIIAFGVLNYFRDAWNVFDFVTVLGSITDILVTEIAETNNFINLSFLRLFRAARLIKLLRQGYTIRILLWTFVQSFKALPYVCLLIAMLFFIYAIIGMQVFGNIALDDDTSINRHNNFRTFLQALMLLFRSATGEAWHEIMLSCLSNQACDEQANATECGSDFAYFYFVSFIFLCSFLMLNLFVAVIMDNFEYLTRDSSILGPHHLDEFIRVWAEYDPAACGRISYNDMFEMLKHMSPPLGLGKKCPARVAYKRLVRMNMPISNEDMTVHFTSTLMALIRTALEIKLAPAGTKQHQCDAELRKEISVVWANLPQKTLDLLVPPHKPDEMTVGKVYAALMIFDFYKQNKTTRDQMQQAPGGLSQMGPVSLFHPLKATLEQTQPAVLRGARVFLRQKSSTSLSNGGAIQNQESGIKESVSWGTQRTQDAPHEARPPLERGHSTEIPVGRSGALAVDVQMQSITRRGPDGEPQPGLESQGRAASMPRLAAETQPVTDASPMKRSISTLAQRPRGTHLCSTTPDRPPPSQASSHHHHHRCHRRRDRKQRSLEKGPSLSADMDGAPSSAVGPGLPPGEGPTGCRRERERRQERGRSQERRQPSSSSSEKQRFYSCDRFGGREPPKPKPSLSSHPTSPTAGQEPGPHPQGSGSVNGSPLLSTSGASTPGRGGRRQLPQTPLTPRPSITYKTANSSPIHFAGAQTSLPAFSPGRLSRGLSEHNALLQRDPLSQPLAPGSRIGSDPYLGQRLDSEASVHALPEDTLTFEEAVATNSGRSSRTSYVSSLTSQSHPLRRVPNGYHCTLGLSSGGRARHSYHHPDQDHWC
Voltage-gated N-type calcium channel alpha-1B subunit/Amyloid beta A4 precursor protein-binding family A member 1, sequence (Q02410 whole entry): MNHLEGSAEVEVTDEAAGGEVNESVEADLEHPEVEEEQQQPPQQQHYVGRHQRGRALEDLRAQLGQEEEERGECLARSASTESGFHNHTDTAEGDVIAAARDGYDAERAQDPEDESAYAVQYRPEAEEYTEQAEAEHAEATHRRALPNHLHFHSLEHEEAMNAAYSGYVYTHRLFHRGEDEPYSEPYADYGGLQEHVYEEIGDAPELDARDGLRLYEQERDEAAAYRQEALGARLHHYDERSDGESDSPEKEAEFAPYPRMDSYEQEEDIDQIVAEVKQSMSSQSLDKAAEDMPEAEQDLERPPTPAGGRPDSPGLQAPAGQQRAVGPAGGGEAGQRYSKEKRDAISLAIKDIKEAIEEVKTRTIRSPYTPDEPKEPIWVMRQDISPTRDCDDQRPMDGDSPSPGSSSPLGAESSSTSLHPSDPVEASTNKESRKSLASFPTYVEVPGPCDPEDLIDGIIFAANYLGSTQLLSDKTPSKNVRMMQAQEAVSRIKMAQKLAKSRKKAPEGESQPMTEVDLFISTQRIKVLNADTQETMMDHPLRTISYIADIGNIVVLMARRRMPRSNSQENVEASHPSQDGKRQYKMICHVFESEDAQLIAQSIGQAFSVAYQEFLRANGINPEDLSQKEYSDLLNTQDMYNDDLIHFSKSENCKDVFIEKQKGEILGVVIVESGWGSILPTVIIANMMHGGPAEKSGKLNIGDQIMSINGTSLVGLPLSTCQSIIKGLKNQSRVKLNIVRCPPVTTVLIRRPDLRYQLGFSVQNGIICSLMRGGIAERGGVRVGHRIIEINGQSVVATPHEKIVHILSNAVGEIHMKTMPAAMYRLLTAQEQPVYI

[12] = target: T2, Rac GTPase-activating protein 1 (Homo sapiens, UniProt Q9H0H5); assay: blockers of MgcRacGAP-driven Rac1 GTP hydrolysis – biochemical, ADP Hunter fluorescence, primary and confirmatory, confirmation (AID 624330); assay type: functional
T2 sequence (Q9H0H5 whole entry): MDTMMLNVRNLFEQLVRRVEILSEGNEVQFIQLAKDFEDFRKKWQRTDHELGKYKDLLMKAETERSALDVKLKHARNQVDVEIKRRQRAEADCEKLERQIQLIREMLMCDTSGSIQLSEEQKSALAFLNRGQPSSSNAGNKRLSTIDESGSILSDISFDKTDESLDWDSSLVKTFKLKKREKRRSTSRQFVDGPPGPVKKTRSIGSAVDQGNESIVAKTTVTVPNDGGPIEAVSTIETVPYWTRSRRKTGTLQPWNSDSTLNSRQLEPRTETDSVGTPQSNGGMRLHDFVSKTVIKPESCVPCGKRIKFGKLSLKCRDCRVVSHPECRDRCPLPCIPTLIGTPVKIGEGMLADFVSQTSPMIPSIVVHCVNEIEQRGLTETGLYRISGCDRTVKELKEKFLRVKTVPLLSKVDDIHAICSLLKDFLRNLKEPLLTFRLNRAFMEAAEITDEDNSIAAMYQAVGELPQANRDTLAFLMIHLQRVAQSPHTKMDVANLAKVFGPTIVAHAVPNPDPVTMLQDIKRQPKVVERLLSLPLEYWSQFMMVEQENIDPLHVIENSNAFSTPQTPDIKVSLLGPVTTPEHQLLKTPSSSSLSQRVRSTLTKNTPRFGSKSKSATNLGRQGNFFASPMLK

[13] = viability loss in THP-1 monocytes – THP-1 cells, cytotoxicity control for Vif-APOBEC3G degradation inhibitor project, dose response (AID 1117359); assay type: functional; conditions: THP-1

Compound: O=C1C=C(O)c2c(O)cc(O)c(O)c2C1=O
EC50 [1]: 9.93 µM (active) | IC50 [2]: > 122 µM (inactive)

Ki [3]: > 2.51 µM (inactive) | Ki [4]: 2.51 µM (active) | Ki [5]: > 6.31 µM (inactive) | Ki [6]: > 6.31 µM (inactive) | Ki [7]: > 2.51 µM (inactive) | Ki [8]: > 2.51 µM (inactive) | Ki (Focal adhesion kinase 1): > 6.31 µM (inactive) | Ki [9]: 0.158 µM (active) | Ki [10]: > 3.16 µM (inactive)
Compound: Cc1ccc(-c2cc3nc(Br)cnc3[nH]2)cc1

Compound: CC(=O)N(C1=C(Cl)C(=O)c2ccccc2C1=O)c1ccc(C(=O)O)cc1
IC50 [11]: 3.35 µM (active) | IC50 [12]: 165 µM (active) | CC50 [13]: 32.4 µM (active)
